# Source: PMC7279487, “Dual Target Ligands with 4-tert-Butylphenoxy Scaffold as Histamine H3 Receptor Antagonists and Monoamine Oxidase B Inhibitors” (International Journal of Molecular Sciences, 2020)
# How the values were obtained:
# hMAO B [1] = target: T1, hMAO B (Homo sapiens, UniProt P27338); assay: hMAO B reversibility studies; assay type: biochemical; settings: inhibitor at IC80; without preincubation; compared with safinamide and rasagiline
# T1 construct: purchased Sigma Aldrich M7441
# T1 sequence (P27338 1-520): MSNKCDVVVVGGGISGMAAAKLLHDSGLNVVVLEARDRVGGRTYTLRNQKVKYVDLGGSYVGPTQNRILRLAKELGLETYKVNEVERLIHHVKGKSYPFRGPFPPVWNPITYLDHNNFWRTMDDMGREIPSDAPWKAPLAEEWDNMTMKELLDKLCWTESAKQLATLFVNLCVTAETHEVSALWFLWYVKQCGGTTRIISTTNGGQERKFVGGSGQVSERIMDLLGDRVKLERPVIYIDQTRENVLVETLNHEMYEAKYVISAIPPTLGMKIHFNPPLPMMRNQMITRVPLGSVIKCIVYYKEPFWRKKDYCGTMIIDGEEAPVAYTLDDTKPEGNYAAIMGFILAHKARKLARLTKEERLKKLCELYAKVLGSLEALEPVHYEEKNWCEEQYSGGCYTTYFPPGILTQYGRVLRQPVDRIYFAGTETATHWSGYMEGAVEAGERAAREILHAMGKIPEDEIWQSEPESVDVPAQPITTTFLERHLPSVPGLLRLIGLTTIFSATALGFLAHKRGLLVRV
# Procedure: Reversibility of MAO B inhibitors was tested as described previously with slight modification. Two experiments were performed simultaneously. In the first experiment, inhibitors (in concentrations corresponding to their IC80 values) were incubated with the enzyme and p-tyramine (10 μM) for 22 min (measuring fluorescence every two minutes).
# [2] = test system: haloperidol-induced catalepsy; assay: haloperidol-induced catalepsy, crossed-leg position test; assay type: in vivo, Wistar rats; settings: for Times of Observation of Catalepsy (s), 0 min / Times of Observation of Catalepsy (s), 3 min / Times of Observation of Catalepsy (s), 6 min: mean ± SEM (n = 6)
# Procedure: (§1) Haloperidol (dopamine D2 antagonist)-induced catalepsy in rodents is a popular model for screening of antiparkinsonian activity of compounds [21]. Caused symptoms in animals are similar to the inability of PD patients to initiate movements. […] The reversal of catalepsy was tested for 6 min (3 times in 3 min intervals) after 1 h of haloperidol administration. As the reference compound was used MSX-3, the adenosine A2A receptor antagonist with confirmed ability to reverse catalepsy mediated by D1 and D2 receptor antagonists.
# (§2) The experiments were carried out on male rats Wistar (180–220 g). Animals were housed in plastic cages in room at a constant temperature of 20 ± 2 °C with natural light–dark cycles. The animals had free access to standard pellet diet and water and were used after a minimum of 3 days of acclimatization to the housing conditions. Control and experimental groups consisted of 6 animals each. All experimental procedures were performed according to the European Union Directive of 22 September 2010 (2010/63/EU) and Polish legislation concerning animal care and use and was approved by the Local Ethics Committee for Experiments on Animals in Kraków, Poland (Resolution No. 70/2014, approval date: 20 May 2014). The examined compound was administered as the suspension in 0.5% methylcellulose in constant volume of 10 mL/kg.
# (§3) Antiparkinsonian activity in catalepsy tests was performed as described in [28]. Haloperidol was administered s.c. at a dose of 0.63 mg/kg, which in 100% of control animals caused catalepsy. Tested compounds were administered i.p. at the doses 50 and 25 mg/kg body weight, 5 min after haloperidol injection. After 60 min from the injection of haloperidol, to assess the occurrence of catalepsy, the animals were placed in a forced position and the time they remained in this position was measured. Two tests were performed to determine the antiparkinsonian activity: crossed leg position test and bar test. In the first test, the animals were put on the hind paws behind the front (forced position); in the second, the animals were supported on a wooden block (the front paws were placed on a block suspended 10 cm above the ground). Then, the time that the animals remain is measured in a forced position (time was measured to a maximum of 60 s). Observation was carried out 3 times in 3-min intervals. The shortening of the time of catalepsy to the control group was adopted for the antiparkinsonian activity.
# [3] = test system: haloperidol-induced catalepsy; assay: haloperidol-induced catalepsy, bar test; assay type: in vivo, Wistar rats; settings: for Times of Observation of Catalepsy (s), 0 min / Times of Observation of Catalepsy (s), 3 min / Times of Observation of Catalepsy (s), 6 min: mean ± SEM (n = 6)
# Procedure: as §1
# Haloperidol-induced catalepsy was not reduced by DL-76 administrated at a dose of 25 mg/kg body weight (Table 3). After administration of DL-76 at a dose of 50 mg/kg body weight, low antiparkinsonian activity in the bar test was observed. […] This effect was weaker than the anti-Parkisonian activity of MSX-3.
# as §2, §3
# hMAO B [4] = target: T1, hMAO B; assay: hMAO B inhibition, fluorometric Amplex Red MAO assay; assay type: biochemical
# human MAO A = target: T2, human MAO A (Homo sapiens, UniProt P21397); assay: hMAO A inhibition, fluorometric Amplex Red MAO assay; assay type: biochemical; settings: mean ± SEM; p-tyramine 200 μM
# T2 construct: purchased Sigma Aldrich M7316
# T2 sequence (P21397 1-527): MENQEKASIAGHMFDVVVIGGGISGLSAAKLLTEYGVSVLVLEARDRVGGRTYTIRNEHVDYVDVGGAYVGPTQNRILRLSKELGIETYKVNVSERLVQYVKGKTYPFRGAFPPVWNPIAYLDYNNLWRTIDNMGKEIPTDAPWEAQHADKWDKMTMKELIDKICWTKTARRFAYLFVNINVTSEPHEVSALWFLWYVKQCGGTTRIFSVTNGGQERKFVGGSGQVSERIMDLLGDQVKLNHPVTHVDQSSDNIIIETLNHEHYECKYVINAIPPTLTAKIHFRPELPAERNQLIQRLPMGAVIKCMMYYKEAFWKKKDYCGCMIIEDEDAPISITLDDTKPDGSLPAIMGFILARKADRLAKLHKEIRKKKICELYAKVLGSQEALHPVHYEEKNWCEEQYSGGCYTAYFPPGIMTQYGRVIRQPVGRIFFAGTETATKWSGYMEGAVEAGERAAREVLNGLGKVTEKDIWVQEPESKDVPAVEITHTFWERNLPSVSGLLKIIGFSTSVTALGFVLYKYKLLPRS
# Procedure: Inhibitory potency of compounds on MAO isoenzymes were carried out by a fluorometric method with a commercial Amplex™ Red Monoamine Oxidase Assay Kit (ThermoFisher Scientific A12214, Waltham, MA, USA) as described previously. For all tests, recombinant human MAO B and MAO A (from Sigma AldrichM7441 and M7316, Darmstadt, Germany) were used. Inhibitors’ activity was measured in the presence of p-tyramine (200 μM).
# […] […] All calculations were made in Microsoft Excel and GraphPadPrism software. All experiments were performed in duplicate, and data are expressed as mean ± SEM of 2–5 independent experiments.
# [5] = concentration used in kinetic studies
smiles,measurement,setting,value
"CC(C)(C)c1ccc(OCCCN2CCCCC2)cc1 [DL76, 1-(3-(4-tert-butylphenoxy)propyl)piperidine]",type of hMAO B inhibition (reversible or irreversible),hMAO B [1],reversible
same,duration of catalepsy (versus control 19.25),[2]; 25 mg/kg body weight,8.75
same,reduction of the duration of catalepsy compared to the control group,"[2]; 25 mg/kg body weight, not statistically significant",54.5%
same,"Times of Observation of Catalepsy (s), 0 min",[2]; 25 mg/kg,0.66 ± 0.68 s
same,"Times of Observation of Catalepsy (s), 3 min",[2]; 25 mg/kg,10.6 ± 6.1 s
same,"Times of Observation of Catalepsy (s), 6 min",[2]; 25 mg/kg,15.0 ± 6.7 s
same,duration of catalepsy (versus control 19.25),[2]; 50 mg/kg body weight,0.053
same,reduction of the duration of catalepsy compared to the control group,"[2]; 50 mg/kg body weight, statistically significant",99.7%
same,"Times of Observation of Catalepsy (s), 0 min",[2]; 50 mg/kg,0 ± 0 s
same,"Times of Observation of Catalepsy (s), 3 min",[2]; 50 mg/kg,0 ± 0 s
same,"Times of Observation of Catalepsy (s), 6 min",[2]; 50 mg/kg,0.16 ± 0.4 s
same,reduction of haloperidol-induced catalepsy,[3]; 25 mg/kg body weight,not reduced
same,"Times of Observation of Catalepsy (s), 0 min",[3]; 25 mg/kg i.p.,19.5 ± 4.2 s
same,"Times of Observation of Catalepsy (s), 3 min",[3]; 25 mg/kg i.p.,26.5 ± 3.5 s
same,"Times of Observation of Catalepsy (s), 6 min",[3]; 25 mg/kg i.p.,30.0 ± 0 s
same,duration of catalepsy (versus control 25.8),[3]; 50 mg/kg body weight,16.4
same,reduction of the duration of catalepsy compared to the control group,[3]; 50 mg/kg body weight,36.4%
same,"Times of Observation of Catalepsy (s), 0 min",[3]; 50 mg/kg i.p.,13.8 ± 5.9 s
same,"Times of Observation of Catalepsy (s), 3 min",[3]; 50 mg/kg i.p.,13.5 ± 4.2 s
same,"Times of Observation of Catalepsy (s), 6 min",[3]; 50 mg/kg i.p.,22.0 ± 5.0 s
same,IC20,hMAO B [4]; [5],7 nM
same,IC80,hMAO B [4]; [5],164 nM
same,IC50,"hMAO B [4]; mean ± SEM of 2-5 independent experiments, p-tyramine 200 μM",48 ± 15 nM
same,IC50,human MAO A,> 10000 nM
